Test results taken from US20250228858A1, “ANTI-CANCER COMBINATION THERAPY” (Boehringer Ingelheim International GmbH, priority 2023, published 2025).
Values joined by “and” are separate entries in the source; they are usually repeats but may differ in a detail not shown here. Equal entries are not always repeated.

Tests used:
[1] = tested on: HER2-overexpressing human gastric cancer cell line NCI-N87; experiment: NCI-N87 subcutaneous xenograft, zongertinib with T-DM1; type: in vivo, NMRI-Foxn1^nu mice; settings: for Regressions >30% / TGI: day 21; for Regressions >30%: tumors regressed/total; for Time to reach 300 mm^3: median, after stop of treatment at day 21
Experimental: The study is performed in human gastric cancer cell line NCI-N87 grown as subcutaneous xenografts in NMRI-Foxn1^nu mice. Day 1 was the first day, day 21 the last day of treatment and day 22 the final day of analysis. […]
NCI-N87 is a HER2-overexpressing human gastric cancer cell line that can be obtained from the American Type Culture Collection (ATCC #CRL-5822). Cells are cultured in T175 tissue culture flasks at 37° C. and 5% CO2. The medium used is RPMI 1640 (ATCC #30-2001) supplemented with 10% fetal calf serum (FCS) (Thermo Scientific #SH 30084.03). Cultures are split twice weekly with a ratio of 1:2.
Mice are 6- to 10-week-old female NMRI-Foxn1^nu purchased from Taconic, Denmark. After arrival at the animal facility, mice are allowed to adjust to conditions at least for 5 days before they are used for the experiment. They are housed in Macrolon® type III cages in groups of 8 to 10 under pathogen-free, controlled and standardized conditions at 21.5±1.5° C. temperature, 55±10% humidity and 12-h light-dark cycle. Standardized diet (PROVIMI KLIBA) and autoclaved tap water are provided ad libitum. Subcutaneous microchips implanted under isoflurane anaesthesia are used to identify each mouse. Cage cards showing the study number, the animal identification number, the compound, the dose level, the administration route as well as the schedule remain with the animals throughout the study.
To establish subcutaneous tumors, NCI-N87 cells are harvested by centrifugation, washed and resuspended in PBS+5% FCS at 2.5×10^7 cells/ml. 100 μl cell suspension containing 2.5×10^6 cells is injected subcutaneously into the right flank of the mice (1 site per mouse).
The suspension is used for a maximum of 7 days.
T-DM1 (Kadcyla) can be purchased from Roche.
Mice in the control group are treated with vehicle, i.e.: • (i) 0.5% Natrosol, administered once daily for the duration of the treatment intragastrally by gavage needle with a volume of 10 ml/kg body weight; and • (ii) saline (0.9%), administered once every three weeks intravenously into the tail vein with a volume of 5 ml/kg.
Tumor volumes are measured three times a week with a caliper. The volume of each tumor [in mm^3] is calculated according to the formula: […]
To monitor side effects of treatment, mice are inspected daily for abnormalities and body weight is determined three times a week. […] In addition, animals with tumor sizes exceeding 1500 mm^3 in diameter, with ulcerating tumors or 18% body weight loss are euthanized for ethical reasons.
For a quick overview of possible treatment effects, the median of the tumor volume of each treatment group T is referred to the median of the control C as tumor growth inhibition (TGI) defined as: […]
To do so, the time until the tumor reached a critical volume of 300 mm^3 can be included as an additional evaluation parameter. If an animal is sacrificed for tumor necrosis without reaching the critical tumor volume, the time point is set to the last measurement time point and included as a censored observation.
The median survival time is derived from the Kaplan Meier survival curves per group as the time point with a survival probability (probability of reaching the critical tumor volume) of 0.5. For the treatment groups the median survival time is referred to the corresponding time of the control group as an estimate for the prolongation of the time to critical tumor volume by the therapy.

[2] = tested on: HER2 Exon20^YVMA-mutant human non-small cell lung cancer (NSCLC) cell line PC-9_YVMA-5; experiment: PC-9_YVMA-5 subcutaneous xenograft, zongertinib with T-DM1; type: in vivo, NMRI-Foxn1^nu mice; settings: alone or combined; for effect on tumor growth (median tumor volumes over time): T-DM1 5 mg/kg once weekly (q7d), zongertinib 5 mg/kg/day; for TGI: day 19; for TGI / tumors regressed completely / Regressions >30%: zongertinib 5 mg/kg bid, T-DM1 5 mg/kg q7d; for tumors regressed completely: number of tumors, 8 per group; for Regressions >30%: tumors regressed/total (Table 6, FIG. 6 waterfall day 24)
Experimental: The study is performed in human non-small cell lung cancer (NSCLC) cell line PC-9_YVMA-5 (PC-9 YVMA in short) grown as subcutaneous xenografts in NMRI-Foxn1^nu mice. Day 1 was the first day, day 21 the last day of treatment and day 24 the final day of analysis.
PC-9 is a non-small cell lung cancer cell line that can be obtained from the European Collection of Authenticated Cell Cultures (ECACC #90071810) and expresses an EGFR DEL19 mutation. To generate the PC-9_YVMA-5 clone driven by HER2 YVMA, parental PC-9 cells are ectopically transduced to express the HER2 YVMA isoform and the EGFR alleles (mutant and wild type) are deleted using CRISPR technology. Cells are cultured in T175 tissue culture flasks at 37° C. and 5% CO2. The medium used is RPMI 1640 supplemented with 10% FCS (Thermo Scientific #SH 30071.03), 0.5 μg/ml Puromycin (Gibco #A1113803) and 0.6 mg/ml Geneticin (Gibco #10131035). Cultures are split twice weekly with a ratio of 1:5-1:6.
To establish subcutaneous tumors, PC-9_YVMA-5 cells are harvested by centrifugation, washed and resuspended in PBS+5% FCS at 5×10^7 cells/ml. 100 μl cell suspension containing 5×10^6 cells is injected subcutaneously into the right flank of the mice (1 site per mouse). Mice are randomly distributed between the treatment and the vehicle control group (12 days after cell injection) when tumors are well established and have reached volumes of 90 to 149 mm^3.
Mice in the control group are treated with vehicle, i.e.: • (i) 0.5% Natrosol, administered twice daily for the duration of the treatment intragastrally by gavage needle with a volume of 10 ml/kg body weight; and • (ii) saline (0.9%), administered once weekly intravenously into the tail vein with a volume of 5 ml/kg.
Tumor volumes and side effects are monitored as described in Example 1 (see paragraph 1.1.6), except that control animals are sacrificed when the median tumor volume of the group reaches a size of approximately 370 mm^3.
The statistical evaluation of the tumor volume and the body weight is conducted on day 19 (last day of the controls). Apart from this, statistical analysis was performed as described in Example 1 (see paragraph 1.1.7), with no evaluation of tumor growth after stop of treatment.

[3] = zongertinib 5 mg/kg qdx21 p.o., alone or combined with T-DM1 10 mg/kg q21dx1 i.v.
[4] = zongertinib 20 mg/kg qdx21 p.o., T-DM1 10 mg/kg q21dx1 i.v., alone or combined
[5] = zongertinib 20 mg/kg/day, T-DM1 10 mg/kg, alone or combined

Molecule | Regressions >30% [1, 3] | Regressions >30% [1, 4] | TGI [1, 3] [%] | TGI [1, 4] [%] | Time to reach 300 mm^3 [1, 3] [days] | effect on tumor growth (median tumor volumes over time) ([1]; zongertinib 5 mg/kg/day, alone or combined with T-DM1 10 mg/kg) | effect on tumor growth (median tumor volumes over time) [1, 5] | effect on tumor growth (median tumor volumes over time) [2] | TGI [2] [%] | tumors regressed completely [2] | Regressions >30% [2] | Regressions >30% ([2]; listed as zongertinib) | Time to reach 300 mm^3 [1, 4] [days]
C=CC(=O)NC1CCN(c2ncc3ncnc(Nc4ccc(Oc5ccc6c(c5)ncn6C)c(C)c4)c3n2)CC1 [Zongertinib, N-{1-[8-({3-methyl-4-[(1-methyl-1H-1,3-benzodiazol-5-yl)oxy]phenyl}amino)-[1,3]diazino [5,4-d]pyrimidin-2-yl]piperidin-4-yl}prop-2-enamide] | 0/8 | 8/8 | 45 | 145 | 30.0 | did not shrink tumors | induced deep and persistent tumor shrinkage | abolished tumor growth | 110 | none | 4/8 | 4 | 
trastuzumab emtansine [T-DM1, reference compound] |  | 1/8 |  | 67 |  |  | suppressed the growth of NCI-N87 tumors but did not shrink them | abolished tumor growth | 112 | none | 4 and 4/8 |  | 39.5
